Data as given in paper PMC12300041, “Tricyclic Isatin Derivatives as Anti-Inflammatory Compounds with High Kinase Binding Affinity” (Molecules, 2025).

Experiments:
[1] = molecular target: T1, TLK2 (Homo sapiens, UniProt Q86UE8); assay: KINOMEscan; type: binding
T1 construct: purchased Eurofins DiscoverX KINOMEscan
Outline: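 1 h RT binding → immobilized-ligand capture of free kinase → qPCR quantitation. Kd: 12 half-log points, max 33 μM.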

[2] = molecular target: T2, VPS34 (Homo sapiens, UniProt Q8NEB9); assay: KINOMEscan; type: binding
T2 construct: purchased Eurofins DiscoverX KINOMEscan
T2 sequence (Q8NEB9 whole entry): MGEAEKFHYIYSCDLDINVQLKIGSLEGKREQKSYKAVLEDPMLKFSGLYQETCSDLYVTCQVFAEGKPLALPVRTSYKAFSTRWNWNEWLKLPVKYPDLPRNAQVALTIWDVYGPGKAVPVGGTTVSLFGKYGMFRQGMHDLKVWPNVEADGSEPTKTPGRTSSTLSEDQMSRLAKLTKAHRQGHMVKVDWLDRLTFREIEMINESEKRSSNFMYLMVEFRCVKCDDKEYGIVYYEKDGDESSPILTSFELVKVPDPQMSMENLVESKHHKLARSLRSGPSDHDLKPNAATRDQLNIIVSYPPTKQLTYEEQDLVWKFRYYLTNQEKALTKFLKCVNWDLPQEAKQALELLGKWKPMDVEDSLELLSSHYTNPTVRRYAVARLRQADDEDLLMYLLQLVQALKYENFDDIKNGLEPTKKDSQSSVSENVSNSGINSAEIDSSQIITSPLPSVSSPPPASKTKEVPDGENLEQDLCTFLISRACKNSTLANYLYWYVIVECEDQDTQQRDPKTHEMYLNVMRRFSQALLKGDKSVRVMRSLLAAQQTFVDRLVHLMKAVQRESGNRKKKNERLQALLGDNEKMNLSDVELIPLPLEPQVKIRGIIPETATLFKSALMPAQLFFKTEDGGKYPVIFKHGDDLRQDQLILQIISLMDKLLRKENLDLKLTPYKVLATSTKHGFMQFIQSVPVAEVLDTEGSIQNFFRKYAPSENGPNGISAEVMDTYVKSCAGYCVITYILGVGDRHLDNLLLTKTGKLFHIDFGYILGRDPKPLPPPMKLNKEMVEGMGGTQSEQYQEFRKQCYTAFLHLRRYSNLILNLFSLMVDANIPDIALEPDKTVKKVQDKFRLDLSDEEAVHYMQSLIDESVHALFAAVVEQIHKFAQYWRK
Outline: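 Competition binding run for 1 h at room temperature; kinase left unbound by compound was captured on an immobilized affinity ligand and quantified by qPCR. Kd was taken from a 12-point half-log dilution series with a 33 μM top concentration.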

T1 sequence (Q86UE8 whole entry): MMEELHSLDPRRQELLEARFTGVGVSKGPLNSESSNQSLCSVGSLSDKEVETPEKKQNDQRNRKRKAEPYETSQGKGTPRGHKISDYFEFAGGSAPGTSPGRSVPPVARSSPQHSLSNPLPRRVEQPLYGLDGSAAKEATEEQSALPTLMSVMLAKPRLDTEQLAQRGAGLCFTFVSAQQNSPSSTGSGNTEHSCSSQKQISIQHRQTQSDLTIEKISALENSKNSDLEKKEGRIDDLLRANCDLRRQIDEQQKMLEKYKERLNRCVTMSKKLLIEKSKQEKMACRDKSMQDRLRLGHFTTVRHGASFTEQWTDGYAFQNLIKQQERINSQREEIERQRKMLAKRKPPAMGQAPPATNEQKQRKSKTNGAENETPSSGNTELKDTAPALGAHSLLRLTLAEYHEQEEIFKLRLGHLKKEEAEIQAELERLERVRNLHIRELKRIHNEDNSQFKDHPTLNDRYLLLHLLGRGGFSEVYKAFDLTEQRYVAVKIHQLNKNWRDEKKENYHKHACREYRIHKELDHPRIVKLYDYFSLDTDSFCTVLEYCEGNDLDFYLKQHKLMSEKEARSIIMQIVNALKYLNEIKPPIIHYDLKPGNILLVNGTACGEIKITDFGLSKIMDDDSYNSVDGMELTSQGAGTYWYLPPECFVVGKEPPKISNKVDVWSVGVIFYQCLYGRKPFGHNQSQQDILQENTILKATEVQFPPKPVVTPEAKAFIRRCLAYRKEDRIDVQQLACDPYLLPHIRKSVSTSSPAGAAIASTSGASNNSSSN

Structure (SMILES): O=C1Nc2c(cc([N+](=O)[O-])c3c2CCCC3)C1=NO [Compound 5d, 3-(Hydroxyimino)-5-nitro-1,3,6,7,8,9-hexahydro-2H-benzo[g]indol-2-one]
- inhibition at 10 µM [1]: 0%
- inhibition at 10 µM [2]: 27%
